Experimental data taken from US20190184069A1, “ANTIMICROBIAL COMPOSITIONS COMPRISING MINOCYCLINE AND DEGRADATION PRODUCTS OF OXIDIZED CELLULOSE” (Omrix Biopharmaceuticals Ltd., priority 2017, published 2019).
“Also recorded” adds a separate entry of the source.

How the values were obtained:
S. aureus [1] = assay: Primary stage MIC measurement of antibiotic alone (OD 600 nm growth curves, 18 h); format: cell-based, Staphylococcus aureus
Text: The following day, the turbidity of the actively-growing broth culture was adjusted with Calcium-adjusted Mueller Hinton broth II (MHBII) to be equivalent to that of a 0.5 McFarland standard (1×10^8 CFU/ml). The broth culture was maintained under ambient conditions prior to use.
The method used in this stage was based on the classic Minimum Inhibitory Concentration (MIC) measurements, as described by the Clinical and Laboratory Standards Institute (CLSI) document M07-A9: “Method for Dilution Antimicrobial Susceptibility Test for Bacteria that Grow Aerobically”. While classic MIC measurements require visual inspection of plates for bacterial growth after 18 hours, growth was monitored in the present study according to optical density (OD) at 600 nm, using an ELISA reader (MultiSkan™ FC ELISA reader, Thermo Fisher Scientific, Massachusetts, USA), thereby obtaining bacterial growth curves for tested antibiotic solutions.
Columns 1 and 3-12: 100 μl of MHBII alone was added to each well.
[…]: 200 μl of a solution of antibiotic in MHBII at the highest concentration to be tested was added to each well.
A series of 2-fold dilutions was performed, wherein 100 μl of solution of antibiotic was withdrawn from each well of column 2, transferred to the corresponding well of column 3, and mixed.
The dilution was then repeated by transfer from column 3 to column 4, and so on, until column 11, when the 100 μl of solution of antibiotic withdrawn from each well of column 11 was discarded.
(§1) The 5×10^6 CFU/ml stock suspension which had been prepared in advance was transferred into a reservoir and 10 μl of the stock suspension were added into each well of columns 2-11 using a multichannel pipette to obtain a final 5×10^5 CFU/ml suspension.
The plate was then incubated at 37° C. with shaking in the ELISA reader and the optical density at 600 nm was read every 20 minutes for a total of 18 hours.
The average OD reading obtained for each antibiotic concentration was calculated and plotted against time to obtain a growth curve.
The MIC was determined as the first antibiotic concentration at which […] by the end of the 18-hour period.

S. aureus [2] = assay: Tertiary stage: antimicrobial activity (ET50/MIC) of extract of degradation products of antibiotic-impregnated ORC pads, single or combination; format: cell-based, Staphylococcus aureus; details: impregnated on ORC pad together with 1.26 ng/ml minocycline
Protocol: Solutions comprising different concentrations of antibiotics to be tested were prepared in methanol.
Blank ORC pads of dimensions 1×1.5 inch, weighing between 65-75 mg (70 mg on average), in duplicate, were immersed in the antibiotic solutions and then dried using a rotary evaporator to provide extract of degradation products of antibiotic-impregnated ORC pads.
15 ml test tubes containing 3 ml of sterile PBS were prepared, and the antibiotic-impregnated ORC pads were immersed in the tubes and incubated for 3-5 hours at ambient temperature on a roller mixer (Stuart, Cat#SRT9D).
Each of the above extracts was filtered out using a sterile 0.8/0.2 μm syringe filter into a clean 15 ml tube. These extraction fluids are referred to herein as “extract of degradation products of antibiotic-impregnated ORC”.
Briefly, ORC pads weighing on average 70 mg each were impregnated with the selected antibiotic. Extracts of degradation products of antibiotic-impregnated ORC were prepared by immersion and incubation in 3 ml of sterile PBS for 3 hours at ambient temperature. The ORC degeneration products were then removed, and any remaining ORC particles were filtered out using a […] syringe filter. This extraction fluid was then diluted 10-fold into Muller Hinton growth medium containing bacteria. Bacterial growth was monitored every 20 min for a total of 18 hours according to optical density (OD) at 600 nm, using an ELISA reader.
Since the study included many possible combinations of two antibiotics, each with their own different concentration range, a matrix of possible antibiotic concentrations was designed, and degradation products of ORC were prepared accordingly (see Table 10). Since all the possible combinations could not be fitted into one 96 well plate, a series of MIC experiments were carried out.

S. aureus [3] = assay: Secondary stage: bacterial growth (ET50/MIC) of antibiotics with or without extract of degradation products of ORC; format: cell-based, Staphylococcus aureus; details: for Effect of addition of degradation products of ORC on the antibiotic activity: antibiotic with versus without ORC degradation products
Text: ORC pads which had not been impregnated with antibiotic (referred to herein as “blank ORC pads”), were subjected to extraction and degradation in PBS for three hours at ambient temperature. Extract obtained from these blank ORC pads is referred to herein as “blank extract of degradation products of ORC”.
Blank ORC pads were subjected to extraction and degradation in a solution of antibiotic in PBS. Extracts of degradation products obtained from blank ORC pads in a solution of antibiotic in PBS is referred to herein as “extracts of degradation products of blank ORC in antibiotic”.
Due to the acidity of ORC, which provides some antibiotic effect, the size of the pad used was small i.e. approximately 1×1.5 inch, weighing between 65-75 mg (70 mg on average) in order to prevent the ORC from affecting the final pH of the assay and therefore the growth of the bacteria.
15 ml tubes, each containing 3 ml of an antibiotic solution at a known concentration in sterile PBS, were prepared in duplicate.
Blank ORC pads were subjected to extraction and degradation in the antibiotic solution by immersing the ORC pads in the antibiotic solution for 3-5 hours at ambient temperature on a roller mixer (Stuart, Cat#SRT9D).
Blank extract of degradation products of ORC and extract in antibiotic of degradation products of ORC, prepared as described above, were diluted 10 folds in MHBII in sterile 15 ml capped tubes.
as §1
Columns 3 to 6, rows B to F, were filled with the Blank ORC extracted in antibiotic at decreasing concentrations 1 to 5, diluted 10 folds in MHBII. Each sample tested was placed in 4 well repeats for statistical results.
Columns 7 to 10, rows B to F, were filled with the antibiotic solution (AB) at decreasing concentrations 1 to 5, diluted 10 folds in MHBII. Each sample tested was placed in 4 well repeats for statistical results.
Columns 3 to 6, row G, were filled with the blank extract of degradation products of ORC (PBS-ORC) diluted 10 folds in MHBII.
The plate was incubated at 37° C. with shaking in the ELISA reader and the optical density at 600 nm was read every 20 minutes for a total of 18 hours.
The average and standard deviation for OD readings was calculated for each time point of the wells using Excel. The average values were plotted against time to obtain a graph of the bacterial growth curves in the presence of each of the antibiotics tested.
In some cases, the average OD was plotted for a single endpoint of 800 minutes for the various antibiotic treatments and controls.
The average values were also entered into the GraphPad Prism program (GraphPad Software Inc., CA, USA) in order to calculate the Effective Time 50 (ET50) i.e. the time, in minutes, required for the antibiotic to induce a response halfway between the baseline and maximum, where the maximum is the bacterial growth in MHBII with PBS. This provides a quantifiable measure of the efficacy of the antibiotics tested and enables comparison of the various samples tested.

S. aureus [4] = details: cited from earlier work

Q: With `CCC[C@@H]1C[C@@H](C(=O)N[C@@H]([C@H]2O[C@H](SC)[C@H](O)[C@@H](O)[C@H]2O)[C@H](C)Cl)N(C)C1` [Clindamycin, clindamycin] as the molecule, how does the “MIC as single antibiotics in the absence of ORC (first stage MIC results)” value (S. aureus [1]) read?
A: The value was 0.062 µg/mL.

Q: And the “Clindamycin level sufficient for growth inhibition of S. aureus in combination” value (S. aureus [2])?
A: The value was 8.9 ng/mL.

Q: And the “Effect of addition of degradation products of ORC on the antibiotic activity” value (S. aureus [3])?
A: Its value is “no effect”.

Q: With Gentamycin [Gentamicin] as the molecule, how does the “MIC values for S. aureus according to the literature” value (S. aureus [4]) read?
A: Its value is 0.12 to 1 µg/mL.

Q: And the “MIC values found in the present study (primary stage, Example 1)” value (S. aureus [1]; antibiotic alone, no ORC)?
A: The value was 0.25 µg/mL.

Q: What about the “Effect of addition of degradation products of ORC on the antibiotic activity” value (S. aureus [3]) of the same molecule?
A: Its value is “reduction in the antibiotic activity; also recorded: decreased antibiotic activity; also recorded: lowering of the antibiotic activity; also recorded: impaired”.

Q: And the ET50 (S. aureus [3]; gentamycin 0.1 μg/ml, +ORC degradation products)?
A: The ET50 was 423.7 min.

Q: And the ET50 (S. aureus [3]; gentamycin 0.1 μg/ml, −ORC)?
A: Its ET50 is 509.4 min.

Q: What about the ET50 (S. aureus [3]; gentamycin 0.3 μg/ml, +ORC degradation products) of the same molecule?
A: The ET50 was 429.3 min.

Q: And the ET50 (S. aureus [3]; gentamycin 0.3 μg/ml, −ORC)?
A: The ET50 was 1360 min.

Q: What about the ET50 (S. aureus [3]; gentamycin 0.5 μg/ml, +ORC degradation products) of the same molecule?
A: Its ET50 is 423.1 min.

Q: And the ET50 (S. aureus [3]; gentamycin 0.8 μg/ml, +ORC degradation products)?
A: The ET50 was 422.7 min.

Q: What about the ET50 (S. aureus [3]; gentamycin 1 μg/ml, +ORC degradation products) of the same molecule?
A: Its ET50 is 446.6 min.

Q: Which results are given for `CN(C)[C@@H]1C(O)=C(C(N)=O)C(=O)[C@@]2(O)C(O)=C3C(=O)c4c(O)cccc4[C@@](C)(O)[C@H]3C[C@@H]12` [Tetracycline]?
A: Effect of addition of degradation products of ORC on the antibiotic activity (S. aureus [3]): no effect; ET50 (S. aureus [3]; tetracycline 0.025 μg/ml, +ORC degradation products): 517.7 min; ET50 (S. aureus [3]; tetracycline 0.025 μg/ml, −ORC): 531.1 min; ET50 (S. aureus [3]; tetracycline 0.05 μg/ml, +ORC degradation products): 741.1 min; ET50 (S. aureus [3]; tetracycline 0.05 μg/ml, −ORC): 989.9 min; ET50 (S. aureus [3]; tetracycline 0.1 μg/ml, +ORC degradation products): 1470 min; ET50 (S. aureus [3]; tetracycline 0.1 μg/ml, −ORC): 1889 min; ET50 (S. aureus [3]; tetracycline 0.2 μg/ml, +ORC degradation products): >2000 min; ET50 (S. aureus [3]; tetracycline 0.2 μg/ml, −ORC): >2000 min; ET50 (S. aureus [3]; tetracycline 0.4 μg/ml, +ORC degradation products): >2000 min; ET50 (S. aureus [3]; tetracycline 0.4 μg/ml, −ORC): >2000 min
